In patent publication US11970474B2, “Substituted benzodiazoles and use thereof in therapy” (THOMAS HELLEDAYS STIFTELSE FÖR MEDICINSK FORSKNING, priority 2018, dated 2024):
Where two headings read alike, the source gives them in different places.

Tests used:
[1] = tested on: MLE12 cells; assay: Cell viability assay in MLE12 cells (resazurin); assay type: cell-based, mouse; settings: TNF-α 20 ng/ml, resazurin added after 24 hours culture
Protocol: (§1) Stock solutions (10 mM in DMSO) of compounds were dispensed in V-bottom 384-well plates and the following dilutions were prepared: 10 mM and 0.05 mM. The dilutions were transferred to the source plate. Duplicate 6 points dose-response curves of compounds were nano-dispensed in cell plates (CCL2 assay) and in parallel, 11 points DR curves in duplicates were nano-dispensed for the viability assay. The plates were heat sealed and kept at RT until use.
(§2) MLE12 cells in flasks were washed once with PBS, detached with Trypsin/EDTA, resuspended in fresh medium and counted. Cells were diluted to 3×10^5 cells/ml and seeded with Multidrop Combi in cell plates pre-dispensed with compounds, 25 μl/well (7500 cells/well). The plates were placed, one by one, in a CO2-incubator at 37° C. for 1 hour after which 25 μl/well of TNF-α (final concentration 20 ng/ml) were added. The plates were transferred back to the CO2-incubator placed in a plastic box with wet tissue in the bottom, to avoid evaporation, for 30 hours.
After 24 hours culture, resazurin reagent (stock 1 mg/ml in PBS) diluted 1:17 in PBS was added with Multidrop Combi, 10 μl/well, and plates were incubated for 6 hours. Plates were read in Sense plate reader with resorufin protocol (ex544 nm/em595 nm). The results were imported to an excel template where the EC50 values were calculated using XLfit.

[2] = tested on: CCL2; assay: Mouse CCL2 assay in MLE12 cells; assay type: cell-based
Source text: Cisbio mouse CCL2 assay is intended for the quantitative measurement of CCL2 in supernatant using HTRF® technology. The assay is compatible with mouse samples, and is highly specific for CCL2. CCL2 is detected in a sandwich assay format using 2 different specific antibodies, one labeled with Cryptate (donor) and the second with d2 (acceptor). The detection principle is based on HTRF® technology. When the labelled antibodies bind to the same antigen, the excitation of the donor with a light source (laser or flash lamp) triggers a Fluorescence Resonance Energy Transfer (FRET) towards the acceptor, which in turn fluoresces at a specific wavelength (665 nm). The two antibodies bind to the CCL2 present in the sample, thereby generating FRET. Signal intensity is proportional to the number of antigen-antibody complexes formed and therefore to the CCL2 concentration. • Materials: • Cells: MLE12 (Mouse Lung Epithelial cells, SV40 transformed) • Medium: DMEM/F12 (Gibco #11330057), FBS 5% (Gibco #10500064), Pen/Strep 50 U/50 μg/ml (Gibco #15070063) • Cell plates: 384-well, black/clear, TC-treated (Corning #3764) • Source plate: Labcyte LDV 384 (Labcyte #LP-0200) • Compound dilution plate: V-bottom 384-well PP plate (Greiner #781280) • Compounds: 10 mM stocks in DMSO • HTRF plates: 384-well, white, half area, non-binding (Costar #3824) • Mouse CCL2 kit: Cisbio 62MCCL2PEH • Other reagents: Trypsin/EDTA 10× (Gibco #15400054), PBS (Gibco #14190169), Resazurin (Sigma-Aldrich #199303), 1 mg/ml in PBS, TNF-α 200 μg/ml in PBS (Peprotech #300-01A) • Instruments: • Echo liquid handler (Labcyte) • Multidrop Combi (Thermo Scientific) • Sense plate reader (Hidex) Compound Handling:
as §1, §2
After 30 hours incubation, the plates were spun down 5 minutes at 400 g, and 16 μl/well of the supernatants were transferred to the assay plate. A mCCL2 standard curve was prepared according to the kit protocol and 16 μl/well of the standards were also added to the assay plate.
The anti-CCL2 antibody mix was prepared according to the kit protocol, and 4 μl/well were added to the assay plate. The plate was sealed and incubated over night at RT. After incubation the plate was read in Sense plate reader with Time-resolved FRET protocol (Ex330 nm/Em 620 and 665 nm). After data reduction, the delta ratios were imported to an excel template where the IC50 values were calculated.

[3] = molecular target: OGG1 (Homo sapiens (Human), UniProt O15527); assay: In vitro OGG1 activity assay; assay type: biochemical; settings: 800 pM OGG1 enzyme, 2 nM human APEX1, 10 nM 8-oxoA:C substrate
Outline: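 Fluorescence-release assay on a duplex oligonucleotide carrying an OGG1 substrate base beside a fluorophore, quenched from the complementary strand. Excess APEX1 cleaves the abasic site left by base excision, melting the duplex and unquenching the fluorophore. Compounds in DMSO were dispensed before enzyme and substrate, and fluorescein signal was read.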

[4] = Mus musculus, MLE12, 30 h, MLE12 cells, TNF-α 20 ng/ml, supernatant after 30 hours, HTRF, read-out: CCL2 (EC50)

OGG1, sequence (O15527 whole entry): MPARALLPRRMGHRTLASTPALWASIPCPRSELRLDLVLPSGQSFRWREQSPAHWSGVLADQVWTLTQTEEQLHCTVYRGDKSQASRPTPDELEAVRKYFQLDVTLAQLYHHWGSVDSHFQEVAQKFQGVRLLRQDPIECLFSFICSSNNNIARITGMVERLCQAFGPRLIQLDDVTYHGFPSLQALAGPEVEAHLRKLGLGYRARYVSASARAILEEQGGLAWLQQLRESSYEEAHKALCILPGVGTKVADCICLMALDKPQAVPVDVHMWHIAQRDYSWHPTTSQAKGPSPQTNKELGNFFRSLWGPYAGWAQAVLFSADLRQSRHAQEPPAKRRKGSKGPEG

Compound | IC50 ([1]; Mus musculus, MLE12, 24 h) | EC50 [2, 4] | IC50 [3] | IC50 ([1]; Mus musculus) | EC50 ([2]; Mus musculus, MLE12, 30 h, read-out: CCL2 (EC50, nM)) | IC50 [1] | EC50 ([2]; MLE12 cells, TNF-α 20 ng/ml, supernatant after 30 hours, HTRF, read-out: CCL2 (EC50))
O=C(Nc1ccc(I)cc1)N1CCC(n2c(=O)[nH]c3cc(Cl)ccc32)CC1 [Example 2, 4-(5-Chloro-2-oxo-2,3-dihydro-1H-1,3-benzodiazol-1-yl)-N-(4-iodophenyl) piperidine-1-carboxamide] | 10.3 µM | 15400 nM |  |  |  |  | 
Nc1cccc2c1[nH]c(=O)n2C1CCN(C(=O)Nc2ccc(I)cc2)CC1 [Example 20, 4-(4-Amino-2-oxo-2,3-dihydro-1H-1,3-benzodiazol-1-yl)-N-(4-iodophenyl)piperidine-1-carboxamide] | 11.5 µM | 33000 nM |  |  |  |  | 
O=C(Nc1ccc(I)cc1)N1CCC(n2c(=O)[nH]c3c(-n4cccn4)cccc32)CC1 [Example 22, N-(4-iodophenyl)-4-[2-oxo-4-(1H-pyrazol-1-yl)-2,3-dihydro-1H-1,3-benzodiazol-1-yl]piperidine-1-carboxamide] | 13.8 µM | 52700 nM | 0.848 µM |  |  |  | 
O=C(Nc1ccc(I)cc1)N1CCC(n2c(=O)[nH]c3c(-n4cncn4)cccc32)CC1 [Example 23, N-(4-iodophenyl)-4-[2-oxo-4-(1H-1,2,4-triazol-1-yl)-2,3-dihydro-1H-1,3-benzodiazol-1-yl]piperidine-1-carboxamide] | 19.9 µM | 29000 nM | 0.728 µM |  |  |  | 
O=C(Nc1ccc(I)cc1)N1CCC(n2c(=O)[nH]c3c(-c4cccnc4)cccc32)CC1 [Example 26, N-(4-iodophenyl)-4-[2-oxo-4-(pyridin-3-yl)-2,3-dihydro-1H-1,3-benzodiazol-1-yl]piperidine-1-carboxamide] | 7.7 µM | 15000 nM |  |  |  |  | 
O=C(Nc1ccc(Cl)c(Cl)c1)N1CCC(n2c(=O)[nH]c3c(Br)cccc32)CC1 [Example 27, 4-(4-Bromo-2-oxo-2,3-dihydro-1H-1,3-benzodiazol-1-yl)-N-(3,4-dichlorophenyl)piperidine-1-carboxamide] | 7.74 µM | 16300 nM | 0.488 µM |  |  |  | 
O=C(Nc1ccc(Cl)c(Cl)c1)N1CCC(n2c(=O)[nH]c3c(-c4cncnc4)cccc32)CC1 [Example 37, N-(3,4-dichlorophenyl)-4-[2-oxo-4-(pyrimidin-5-yl)-2,3-dihydro-1H-1,3-benzodiazol-1-yl]piperidine-1-carboxamide] | 7.03 µM | 17400 nM | 1.59 µM |  |  |  | 
Nc1ccc(-c2cccc3c2[nH]c(=O)n3C2CCN(C(=O)Nc3ccc(Cl)c(Cl)c3)CC2)cn1 [Example 39, 4-[4-(6-Aminopyridin-3-yl)-2-oxo-2,3-dihydro-1H-1,3-benzodiazol-1-yl]-N-(3,4-dichlorophenyl)piperidine-1-carboxamide] | 6.5 µM | 15100 nM | 0.788 µM |  |  |  | 
O=C(Nc1ccc(I)cc1)N1CCC(n2c(=O)[nH]c3c(-n4cc(Br)cn4)cccc32)CC1 [Example 41, 4-[4-(4-Bromo-1H-pyrazol-1-yl)-2-oxo-2,3-dihydro-1H-1,3-benzodiazol-1-yl]-N-(4-iodophenyl)piperidine-1-carboxamide] | 16.6 µM | 50700 nM |  |  |  |  | 
O=C(Nc1ccc(Br)c(Cl)c1)N1CCC(n2c(=O)[nH]c3c(Br)cccc32)CC1 [Example 49, 4-(4-Bromo-2-oxo-2,3-dihydro-1H-1,3-benzodiazol-1-yl)-N-(4-bromo-3-chlorophenyl)piperidine-1-carboxamide] | 5.4 µM | 15200 nM | 0.379 µM |  |  |  | 
O=C(Nc1ccc(Cl)c(Cl)c1)N1C2CCC1CC(n1c(=O)[nH]c3c(Br)cccc31)C2 (stereo not drawn) [Example 72, 3-(4-Bromo-2-oxo-2,3-dihydro-1H-1,3-benzodiazol-1-yl)-N-(3,4-dichlorophenyl)-(endo)-8-azabicyclo[3.2.1]octane-8-carboxamide] |  |  | 0.067 µM | 6.31 µM | 21500 nM |  | 
COc1cc(NC(=O)N2CCC(n3c(=O)[nH]c4c(Br)cccc43)CC2)ccc1C [Example 75, 4-(4-Bromo-2-oxo-2,3-dihydro-1H-1,3-benzodiazol-1-yl)-N-(3-methoxy-4-methylphenyl)piperidine-1-carboxamide] | 10.4 µM | 34100 nM | 0.223 µM |  |  | 12.8 µM | 39400 nM
COc1cc(NC(=O)N2CCC(n3c(=O)[nH]c4c(Br)cccc43)CC2)ccc1Cl [Example 77, 4-(4-Bromo-2-oxo-2,3-dihydro-1H-1,3-benzodiazol-1-yl)-N-(4-chloro-3-methoxyphenyl)piperidine-1-carboxamide] | 7.4 µM | 21200 nM | 0.358 µM |  |  |  | 
COc1cc(NC(=O)N2CCC(n3c(=O)[nH]c4c(-c5ccc(CO)nc5)cccc43)CC2)ccc1C [Example 82, 4-{4-[6-(Hydroxymethyl)pyridin-3-yl]-2-oxo-2,3-dihydro-1H-1,3-benzodiazol-1-yl}-N-(3-methoxy-4-methylphenyl)piperidine-1-carboxamide] | 17.7 µM | 30800 nM | 1 µM |  |  |  | 
O=c1[nH]c2c(Br)cccc2n1[C@H]1CC[C@@H](C(=O)Nc2ccc(Cl)c(F)c2)CC1 [Example 121, (Cis)-4-(4-bromo-2-oxo-2,3-dihydro-1H-1,3-benzodiazol-1-yl)-N-(4-chloro-3-fluorophenyl)cyclohexane-1-carboxamide] | 4.86 µM | 13000 nM |  |  |  |  | 
Cc1ccc(NC(=O)[C@H]2CC[C@@H](n3c(=O)[nH]c4c(Br)cccc43)CC2)cc1C [Example 124, (Cis)-4-(4-bromo-2-oxo-2,3-dihydro-1H-1,3-benzodiazol-1-yl)-N-(3,4-dimethylphenyl)cyclohexane-1-carboxamide] | 11.5 µM | 31200 nM |  |  |  |  | 
COc1cc(NC(=O)[C@H]2CC[C@@H](n3c(=O)[nH]c4c(Br)cccc43)CC2)ccc1F [Example 130, (Cis)-4-(4-bromo-2-oxo-2,3-dihydro-1H-1,3-benzodiazol-1-yl)-N-(4-fluoro-3-methoxyphenyl)cyclohexane-1-carboxamide] | 6.36 µM | 22600 nM |  |  |  |  | 
COc1cc(NC(=O)[C@H]2CC[C@@H](n3c(=O)[nH]c4c(N)cccc43)CC2)ccc1C [Example 249, Cis-4-(4-amino-2-oxo-2,3-dihydro-1H-1,3-benzodiazol-1-yl)-N-(3-methoxy-4-methylphenyl)cyclohexane-1-carboxamide] | 15.7 µM | 34700 nM |  |  |  |  | 
COc1cc(NC(=O)[C@H]2CC[C@@H](n3c(=O)[nH]c4c(OCCC(C)C)cccc43)CC2)ccc1C [Example 325, Cis-N-(3-methoxy-4-methylphenyl)-4-[4-(3-methylbutoxy)-2-oxo-2,3-dihydro-1H-1,3-benzodiazol-1-yl]cyclohexane-1-carboxamide] |  |  | 0.314 µM |  |  |  | 
COc1cc(NC(=O)[C@H]2CC[C@@H](n3c(=O)[nH]c4c(OCCOC5CCCCC5)cccc43)CC2)ccc1C [Example 326, Cis-4-(4-(2-(cyclohexyloxy)ethoxy)-2-oxo-2,3-dihydro-1H-benzo[d]imidazol-1-yl)-N-(3-methoxy-4-methylphenyl)cyclohexanecarboxamide] |  |  | 0.118 µM |  |  |  | 
